From ChEMBL document CHEMBL5537208 (J Med Chem, 2024)
Converted amounts (≈) assume the structure as drawn.

Legend:
Orexin receptor type 2 = target: T1, Orexin receptor type 2 (Homo sapiens, UniProt O43614)
T1 sequence (O43614 whole entry): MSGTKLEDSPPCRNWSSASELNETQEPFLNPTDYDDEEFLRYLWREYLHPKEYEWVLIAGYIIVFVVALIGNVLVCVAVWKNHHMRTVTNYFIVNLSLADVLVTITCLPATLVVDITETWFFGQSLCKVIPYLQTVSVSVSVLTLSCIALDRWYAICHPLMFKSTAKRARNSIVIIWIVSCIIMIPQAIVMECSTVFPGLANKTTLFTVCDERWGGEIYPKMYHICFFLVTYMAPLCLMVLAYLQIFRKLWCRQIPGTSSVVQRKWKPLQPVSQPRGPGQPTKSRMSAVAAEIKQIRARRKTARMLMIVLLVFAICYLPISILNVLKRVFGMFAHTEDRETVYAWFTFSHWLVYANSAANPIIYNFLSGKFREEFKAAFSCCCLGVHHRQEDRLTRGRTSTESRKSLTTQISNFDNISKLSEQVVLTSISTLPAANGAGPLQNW
Description: Antagonist activity at human OX2R expressed in CHO cells preincubated for 120 mins followed by orexin-A addition by FLIPR assay

in vitro [1] = conditions: human, liver microsomes
[2] = target: T2, Orexin/Hypocretin receptor type 1 (Homo sapiens, UniProt O43613)
T2 sequence (O43613 whole entry): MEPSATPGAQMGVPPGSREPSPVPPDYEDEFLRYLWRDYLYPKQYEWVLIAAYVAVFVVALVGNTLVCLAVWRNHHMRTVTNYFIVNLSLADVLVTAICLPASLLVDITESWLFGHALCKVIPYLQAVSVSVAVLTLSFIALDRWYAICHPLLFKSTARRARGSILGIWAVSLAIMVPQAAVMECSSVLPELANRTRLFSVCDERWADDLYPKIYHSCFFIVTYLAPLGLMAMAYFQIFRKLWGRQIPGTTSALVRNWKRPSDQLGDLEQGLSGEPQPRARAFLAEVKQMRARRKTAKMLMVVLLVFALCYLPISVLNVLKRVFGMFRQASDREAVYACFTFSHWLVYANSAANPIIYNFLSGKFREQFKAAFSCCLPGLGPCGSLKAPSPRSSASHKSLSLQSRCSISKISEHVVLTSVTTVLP
Description: Antagonist activity at human OX1R expressed in CHO cells preincubated for 120 mins followed by orexin-A addition by FLIPR assay

in vitro [3] = conditions: rat, liver microsomes
[4] = Unbound drug concentration in Wistar rat brain at 1 mg/kg, po measured after 1 hr by LC-tandem MS analysis; format: ADME, organism-based; conditions: in vivo
[5] = Drug concentration in Wistar rat Cerebrospinal fluid at 100 mg/kg, po measured after 1 hr by LC-tandem MS analysis; format: ADME, organism-based; conditions: read-out: Ct
[6] = Drug concentration in Wistar rat Cerebrospinal fluid at 30 mg/kg, po measured after 1 hr by LC-tandem MS analysis; format: ADME, organism-based; conditions: read-out: Ct
[7] = Ratio of unbound drug concentration in Wistar rat brain to plasma at 1 mg/kg, po measured after 1 hr by LC-tandem MS analysis; format: ADME, organism-based; conditions: read-out: K(p,uu,brain)
[8] = In vivo receptor occupancy at OX2R in Wistar rat brain at 30 mg/kg, po measured after 1 hr relative to control; format: functional
[9] = Unbound drug concentration in Wistar rat plasma at 1 mg/kg, po measured after 1 hr by LC-tandem MS analysis; format: ADME, organism-based; conditions: in vivo
[10] = Unbound drug concentration in Wistar rat brain at 100 mg/kg, po measured after 1 hr by LC-tandem MS analysis; format: ADME, organism-based; conditions: in vivo
[11] = Drug concentration in cerebrospinal fluid of Wistar rat at 1 mg/kg, po measured after 1 hr by LC-tandem MS analysis; format: ADME, organism-based; conditions: read-out: Ct
[12] = Unbound drug concentration in Wistar rat brain at 30 mg/kg, po measured after 1 hr by LC-tandem MS analysis; format: ADME, organism-based; conditions: in vivo
[13] = In vivo receptor occupancy at OX2R in Wistar rat brain at 100 mg/kg, po measured after 1 hr relative to control; format: functional
[14] = target: T3, Orexin/Hypocretin receptor type 1 (Rattus norvegicus) (UniProt P56718); conditions: Wistar, dose 1.0 mg/kg, route po, time 1.0 hrs
T3 sequence (whole entry): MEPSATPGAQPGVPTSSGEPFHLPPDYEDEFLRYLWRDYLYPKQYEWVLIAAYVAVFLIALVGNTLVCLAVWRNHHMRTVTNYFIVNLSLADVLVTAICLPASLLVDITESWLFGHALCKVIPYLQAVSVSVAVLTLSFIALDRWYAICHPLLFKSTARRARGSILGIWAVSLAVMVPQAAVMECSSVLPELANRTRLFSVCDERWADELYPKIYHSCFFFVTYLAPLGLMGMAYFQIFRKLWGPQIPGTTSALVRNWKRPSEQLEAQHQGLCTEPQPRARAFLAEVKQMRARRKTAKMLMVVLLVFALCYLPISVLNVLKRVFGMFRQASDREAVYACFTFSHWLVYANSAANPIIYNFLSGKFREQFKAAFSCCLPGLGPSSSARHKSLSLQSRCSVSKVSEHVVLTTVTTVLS

[15] = Apparent permeability across apical to basal side in MDCKI-MDR1 cells; format: ADME, cell-based, Canis lupus familiaris; conditions: dog, MDCK-MDR1
[16] = Solubility of compound in FeSSIF; format: ADME
[17] = Apparent permeability across basal to apical side in MDCKI-MDR1 cells; format: ADME, cell-based, Canis lupus familiaris; conditions: dog, MDCK-MDR1
in vitro [18] = conditions: dog, MDCK-MDR1
Description: Efflux ratio in MDCKI-MDR1 cells

Cytochrome P450 3A4 = Cytochrome P450 3A4 (Homo sapiens, UniProt P08684); assay: Inhibition of CYP3A4 (unknown origin) using testosterone as substrate; format: ADME
Sequence of Cytochrome P450 3A4 (P08684 whole entry): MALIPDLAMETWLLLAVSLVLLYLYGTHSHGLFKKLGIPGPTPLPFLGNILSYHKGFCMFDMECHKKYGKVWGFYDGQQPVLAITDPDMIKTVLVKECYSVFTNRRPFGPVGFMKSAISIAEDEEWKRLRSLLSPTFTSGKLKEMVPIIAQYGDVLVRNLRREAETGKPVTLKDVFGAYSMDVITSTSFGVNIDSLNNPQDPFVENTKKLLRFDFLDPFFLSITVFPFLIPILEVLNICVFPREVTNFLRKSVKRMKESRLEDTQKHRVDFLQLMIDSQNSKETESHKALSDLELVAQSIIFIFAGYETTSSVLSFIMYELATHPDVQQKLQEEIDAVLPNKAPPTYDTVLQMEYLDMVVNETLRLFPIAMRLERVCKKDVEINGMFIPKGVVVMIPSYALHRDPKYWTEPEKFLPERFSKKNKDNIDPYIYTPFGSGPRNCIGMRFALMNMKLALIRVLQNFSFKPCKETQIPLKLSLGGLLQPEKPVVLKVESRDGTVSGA

SMILES | IC50 (Orexin receptor type 2) [nM] | microsomal CLint at 1 µM (in vitro [1]) [µL/min/mg] | IC50 [2] [nM] | also measured
Cc1ccc(C(=O)N2CCOC[C@H]2Cc2cc(-n3nccn3)ccc2C)c(-n2nccn2)c1 | 1110 | 208 | 4.1 | –
Cc1ccc(-n2nccn2)c(C(=O)N2CCC[C@H]2Cc2cccc(-n3nccn3)c2)c1 | 7 | > 1250 | 0.7 | microsomal CLint at 1 µM (in vitro [3]): > 1250 µL/min/mg
O=C(c1ccccc1-n1nccn1)N1CCOC[C@H]1Cc1cccc(-n2nccn2)c1 | – | 59 | – | –
Cc1ccc(C(=O)N2CCO[C@H](C)[C@H]2Cc2cccc(-n3nccn3)c2)c(-n2nccn2)c1 | – | 301 | – | –
Cc1ccc(C(=O)N2CCOC[C@H]2Cc2cc(Cl)cc(-n3nccn3)c2)c(-n2nccn2)c1 | – | 89 | 1.9 | –
Cc1ccc(C(=O)N2CCOC[C@H]2Cc2cc(-n3nccn3)ccc2F)c(-n2nccn2)c1 | – | 99 | – | Drug uptake(free) [4]: 307 nM; concentration at 1 h [5]: 550 nM; concentration at 1 h [6]: 45 nM; Kp uu at 1 h [7]: 1.73; Occ [8]: 13%; Cp(f) [9]: 177 nM; Drug uptake(free) [10]: 307 nM; concentration at 1 h [11]: 550 nM; Drug uptake(free) [12]: 10 nM; Occ [13]: 82%
Cc1ccc(C(=O)N2CCOC[C@H]2Cc2cc(-n3nccn3)ccc2Cl)c(-n2nccn2)c1 | 595 | 158 | 3.1 | –
Cc1ccc(-n2nccn2)c(C(=O)N2CCOC[C@H]2Cc2cccc(-n3nccn3)c2)c1 | 214 | 119 | 1.7 | Occ [14]: > 91%; Papp A→B [15]: 15.3 ×10⁻⁶ cm/s; Drug uptake(free) [4]: 19 nM; Kp uu at 1 h [7]: 0.53; Cp(f) [9]: 36 nM; microsomal CLint at 1 µM (in vitro [3]): > 1250 µL/min/mg; concentration at 1 h [11]: 51 nM; solubility [16]: 46 µg/mL (≈ 107 µM); Papp B→A [17]: 55.9 ×10⁻⁶ cm/s
Cc1cccc(-c2ncncc2C(=O)N2CCC[C@H]2Cc2cccc(-n3nccn3)c2)c1 | – | – | 9.5 | –
Cc1ccc(C(=O)N2CCO[C@@H](C)[C@H]2Cc2cccc(-n3nccn3)c2)c(-n2nccn2)c1 | – | 327 | – | –
Cc1cccc(-c2sc(C)nc2C(=O)N2CCC[C@H]2Cc2cccc(-c3ncon3)c2)c1 | 4.4 | – | – | –
O=C(c1ccccc1-n1nccn1)N1CCC[C@H]1Cc1cccc(-n2nccn2)c1 | – | – | 5.9 | –
Cc1nc(C(=O)N2CCC[C@H]2Cc2cccc(-n3nccn3)c2)c(-c2ccc3c(c2)OCO3)s1 | 12 | – | 3.6 | –
Cc1cccc(-n2nccn2)c1C(=O)N1CCOC[C@H]1Cc1cccc(-n2nccn2)c1 | – | – | 109 | –
O=C(c1c(F)cccc1-n1nccn1)N1CCOC[C@H]1Cc1cccc(-n2nccn2)c1 | 1550 | – | – | –
Cc1ccc(C(=O)N2CCOC[C@H]2Cc2ccc(C)c(-n3nccn3)c2)c(-n2nccn2)c1 | 184 | 391 | 1.4 | –
O=C(c1cccc(F)c1-n1nccn1)N1CCOC[C@H]1Cc1cccc(-n2nccn2)c1 | – | 104 | – | –

SMILES | IC50 (Orexin receptor type 2) [nM] | microsomal CLint at 1 µM (in vitro [1]) [µL/min/mg] | IC50 [2] [nM] | also measured
Cc1nc(C(=O)N2CCC[C@H]2Cc2cccc(-n3nccn3)c2)c(-c2ccc(F)cc2)s1 | 100 | – | 17 | –
Cc1ccc(C(=O)N2CCOC[C@H]2Cc2cccc(-n3nccn3)c2F)c(-n2nccn2)c1 | 2020 | 170 | 21 | –
Cc1cccc(C(=O)N2CCOC[C@H]2Cc2cccc(-n3nccn3)c2)c1-n1nccn1 | – | 204 | 5.5 | Papp A→B [15]: 16.1 ×10⁻⁶ cm/s; Drug uptake(free) [4]: 260 nM; Kp uu at 1 h [7]: 0.94; Cp(f) [9]: 278 nM; microsomal CLint at 1 µM (in vitro [3]): > 1250 µL/min/mg; concentration at 1 h [11]: 1000 nM; solubility [16]: 337 µg/mL (≈ 785 µM); Papp B→A [17]: 66 ×10⁻⁶ cm/s
Cc1ccc(C(=O)N2[C@H](Cc3cccc(-n4nccn4)c3)COC[C@H]2C)c(-n2nccn2)c1 | – | 623 | 1 | –
Cc1ccc(C(=O)N2C[C@H](C)OC[C@H]2Cc2cccc(-n3nccn3)c2)c(-n2nccn2)c1 | 265 | 322 | 11 | –
COc1ccc(C(=O)N2CCOC[C@H]2Cc2cccc(-n3nccn3)c2)c(-n2nccn2)c1 | 1430 | 157 | 6.2 | Papp A→B [15]: 8.7 ×10⁻⁶ cm/s; microsomal CLint at 1 µM (in vitro [3]): > 1250 µL/min/mg; Papp B→A [17]: 62.4 ×10⁻⁶ cm/s; efflux ratio (in vitro [18]): 7.2
Cc1ccc(C(=O)N2[C@H](Cc3cccc(-n4nccn4)c3)COC[C@@H]2C)c(-n2nccn2)c1 | 1830 | 239 | 34 | –
Cc1ccc(C(=O)N2CCOC[C@H]2Cc2cccc(-n3nccn3)c2)c(-n2nccn2)c1C | 2430 | 292 | 2.8 | Occ [14]: > 98%; Papp A→B [15]: 11.8 ×10⁻⁶ cm/s; Drug uptake(free) [4]: 147 nM; Kp uu at 1 h [7]: 2.04; Cp(f) [9]: 72 nM; microsomal CLint at 1 µM (in vitro [3]): > 1250 µL/min/mg; concentration at 1 h [11]: 370 nM; solubility [16]: 293 µg/mL (≈ 661 µM); Papp B→A [17]: 59.4 ×10⁻⁶ cm/s; efflux ratio (in vitro [18]): 5
O=C(c1ccc(F)cc1-n1nccn1)N1CCOC[C@H]1Cc1cccc(-n2nccn2)c1 | 1040 | 101 | 37 | –
O=C(c1cc(F)ccc1-n1nccn1)N1CCOC[C@H]1Cc1cccc(-n2nccn2)c1 | – | 227 | – | –
Cc1ccc(-n2nccn2)c(C(=O)N2CCCC[C@H]2Cc2cccc(-n3nccn3)c2)c1 | 1.7 | 634 | – | microsomal CLint at 1 µM (in vitro [3]): > 1250 µL/min/mg
Cc1cccc(-c2sc(C)nc2C(=O)N2CCC[C@H]2Cc2cccc(-n3cccn3)c2)c1 | 20 | – | – | –
O=C(c1ccccc1-c1ncccn1)N1CCC[C@H]1Cc1cccc(-n2nccn2)c1 | – | – | 4.4 | –
Cc1ccc(C(=O)N2CCOC[C@H]2Cc2cc(F)cc(-n3nccn3)c2)c(-n2nccn2)c1 | – | 164 | 3.5 | –
COc1ccc(-n2nccn2)c(C(=O)N2CCOC[C@H]2Cc2cccc(-n3nccn3)c2)c1 | 784 | 121 | 3 | Papp A→B [15]: 6.1 ×10⁻⁶ cm/s; microsomal CLint at 1 µM (in vitro [3]): > 1250 µL/min/mg; Papp B→A [17]: 60.6 ×10⁻⁶ cm/s; efflux ratio (in vitro [18]): 10
Cc1ccc(C(=O)N2C[C@@H](C)OC[C@H]2Cc2cccc(-n3nccn3)c2)c(-n2nccn2)c1 | 215 | 139 | 4 | –
Cc1ccc(-n2nccn2)c(C(=O)N2CCNC[C@H]2Cc2cccc(-n3nccn3)c2)c1 | 666 | – | – | IC50 (Cytochrome P450 3A4): 25000 nM
